Experimental data published in patent US20150094354A1, “METHOD FOR TREATING CELL PROLIFERATIVE DISORDER BY INHIBITING C1GALT1 EXPRESSION” (National Taiwan University, priority 2013, published 2015).

Tests used:
HCC36 cells = test: Trypan blue exclusion assay of C1GALT1-enhanced cell viability with MET inhibitor; format: cell-based, human; settings: HCC36, C1GALT1 overexpression, 72 hours
Protocol: (§1) Cells (4×10^4) are seeded in each well of 6-well plates with DMEM containing 10% FBS. Viable cells are analyzed by Trypan blue exclusion assay at 0, 24, 48, and 72 hours. Cell proliferation is evaluated by immunostaining with anti-Ki67 antibody (1:1000; Vector Laboratories). For cell-cycle analysis, 1×10^6 cells are stained with propidium iodide (Sigma) for 30 minutes. The percentages of cells in G1, S, and G2M phases are analyzed by flow cytometry (Becton Dickinson). […] Data are represented as means±SD from three independent experiments (** refers to P<0.01).

Sk-Hep1 cells = test: as above; format: cell-based, human; settings: Sk-Hep1, C1GALT1 overexpression, 72 hours
Protocol: as §1

C1GALT1 [1] = test: FITC-VVA FACS analysis of Tn antigen accumulation in T47D breast cancer cells; format: cell-based, human; settings: mock and C1GALT1 overexpressed T47D transfectants, itraconazole 10 ug/ml
Protocol: (§2) FIGS. 86A-86D are graphs illustrating that itraconazole impairs C1GALT1 function leading to the accumulation of Tn antigen expression in breast cancer cells in accordance with an embodiment of the present invention. […] After itraconazole treatment, cells are detached with 5 mM EDTA. Afterwards, FITC conjugated Vicia villosa agglutinin (VVA), lectin specifically recognizing Tn antigen, is applied for analysis with a fluoresencce-activated cell sorting (FACS) system. A right-shift of the VVA peak indicates the accumulation of Tn antigens. […] After itraconazole treatment, cells are detached with 5 mM EDTA and treated with or without 10 mU/ml neuraminidase to unmask the effects of sialylated O-glycans. After treatment with neuraminidase, FITC conjugated Vicia villosa agglutinin (VVA), lectin specifically recognizing Tn antigen, is applied for analysis with a fluoresencce-activated cell sorting (FACS) system. […] To confirm whether the peak shift is a result of impaired C1GALT1 function, mock and C1GALT1 overexpressed T47D cells are analyzed. […] Overexpression of C1GALT1 results in a left-shift of the VVA peak in itraconazole-untreated transfectants, indicating intact C1GALT1 function in depleting Tn antigens as substrates for T antigen synthesis.

HCC36 cell lines = test: MTT cell growth assay, liver cancer cells; format: cell-based, human; set-up: dose or concentration left out as unconfirmed; settings: HCC36, itraconazole for 5 days, compared with control (DMSO)
Protocol: (§3) FIG. 88C is a schematic diagram illustrating that itraconazole suppresses liver cancer cell growth in accordance with an embodiment of the present invention. To determine whether impairing C1GALT1 function affects liver cancer cell malignant phenotypes, the effects of itraconazole on liver cancer cell growth are analyzed by MTT cell growth assay in HCC36 cell lines. Cells (3×10^3) are seeded into 96-well microtitre plates and treated with DMSO (control) or itraconazole 10 µg/ml for 5 days at 37° C. under 5% CO2 atmosphere. Results from two independent experiments are presented as mean±SD and analyzed with student's t-test, *p<0.05 and **p<0.01.

T47D cell lines = test: MTT cell growth assay, breast cancer cells (itraconazole); format: cell-based, human; set-up: dose or concentration left out as unconfirmed; settings: itraconazole for 5 days, compared with control (DMSO)
Protocol: as §3, with “88B” for “88C”, “breast” for “liver”, “T47D” for “HCC36”

CL1-5 cell lines = test: MTT cell growth assay, lung cancer cells; format: cell-based, human; set-up: dose or concentration left out as unconfirmed; settings: CL1-5, itraconazole for 5 days, compared with control (DMSO)
Protocol: as §3, with “88A” for “88C”, “lung” for “liver”, “CL1-5” for “HCC36”

C1GALT1 [2] = target: T1, C1GALT1 (Homo sapiens, UniProt Q9NS00); test: FITC-VVA FACS analysis of Tn antigen accumulation in HCC36 liver cancer cells; format: cell-based; set-up: endogenous in cells; settings: for VVA peak shift (accumulation of Tn antigens): itraconazole 10 ug/ml
Text: According to another embodiment of the present invention, in the experiment in vitro, itraconazole, a small molecular drug, is used as the C1GALT1 inhibition substance. Itraconazole is an FDA approved drug that is clinically employed as an antimicrobial for the treatment of fungal, mycosis, and candida infections. The inventors of the present invention discovered that the structure of itraconazole is suitable for binding to the catalytic domain of C1GALT1 and inhibiting C1GALT1. Cells are cultured in DMEM with 10% FBS and treated with itraconazole 10 ug/ml for 3 days at 37° C. under 5% CO2.
as §2, with “FIGS. 87A-87D are graphs” for “FIGS. 86A-86D are graphs”, “leading to accumulation of” for “leading to the accumulation of”, “expression in […] cancer cells” for “expression in breast cancer cells”, “right-shift of VVA peak” for “right-shift of the VVA peak”, “C1GALT1 overexpressed HCC36 cells are” for “C1GALT1 overexpressed T47D cells are”, “results in left-shift of” for “results in a left-shift of”
Target sequence in this assay (Q9NS00 whole entry, the tested form may be a part): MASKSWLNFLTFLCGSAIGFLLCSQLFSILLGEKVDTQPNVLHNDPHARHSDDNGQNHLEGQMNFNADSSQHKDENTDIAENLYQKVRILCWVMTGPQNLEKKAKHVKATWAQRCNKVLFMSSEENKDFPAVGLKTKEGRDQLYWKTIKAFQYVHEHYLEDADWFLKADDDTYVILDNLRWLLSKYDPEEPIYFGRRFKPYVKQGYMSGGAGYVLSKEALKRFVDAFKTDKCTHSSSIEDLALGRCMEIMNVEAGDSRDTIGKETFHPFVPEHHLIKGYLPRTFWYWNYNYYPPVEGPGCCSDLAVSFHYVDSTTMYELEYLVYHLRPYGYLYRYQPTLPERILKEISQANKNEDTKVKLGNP

C1GALT1 [3] = target: T1, C1GALT1; test: FITC-VVA FACS analysis of Tn antigen accumulation in CL1-5 lung cancer cells; format: cell-based; set-up: endogenous in cells; settings: for VVA peak shift (accumulation of Tn antigens): itraconazole 10 ug/ml
Protocol: as §2, with “85A-85D” for “86A-86D”, “lung” for “breast”, “indicates” for “indicates the”, “CL1-5” for “T47D”, “itraconazole untreated” for “itraconazole-untreated”
Target sequence in this assay (Q9NS00 whole entry, the tested form may be a part): as above

C1GALT1 [4] = target: T1, C1GALT1; test: FITC-VVA FACS analysis of Tn antigen accumulation in T47D breast cancer cells; format: cell-based; set-up: endogenous in cells; host or cells: T47D breast cancer cells
Protocol: as §2

| SMILES | C1GALT1-enhanced cell viability (HCC36 cells) | C1GALT1-enhanced cell viability (Sk-Hep1 cells) | VVA peak shift (accumulation of Tn antigens) (C1GALT1 [1]) | liver cancer cell growth (HCC36 cell lines) | breast cancer cell growth (T47D cell lines) | lung cancer cell growth (CL1-5 cell lines) | VVA peak shift (accumulation of Tn antigen substrates) (C1GALT1 [2]; C1GALT1 overexpressed HCC36 cells, sialylated O-glycans unmasked by neuraminidase) | VVA peak shift (accumulation of Tn antigens) (C1GALT1 [2]; HCC36 parental cells, regardless of sialylated O-glycans) | VVA peak shift (accumulation of Tn antigens) (C1GALT1 [2]; mock and C1GALT1 overexpressed HCC36 transfectants) | VVA peak shift (accumulation of Tn antigen substrates) (C1GALT1 [3]; C1GALT1 overexpressed CL1-5 cells, sialylated O-glycans unmasked by neuraminidase) | VVA peak shift (accumulation of Tn antigens) (C1GALT1 [3]; CL1-5 parental cells, regardless of sialylated O-glycans) | VVA peak shift (accumulation of Tn antigens) (C1GALT1 [3]; mock and C1GALT1 overexpressed CL1-5 transfectants) | VVA peak shift (accumulation of Tn antigen substrates) (C1GALT1 [4]; C1GALT1 overexpressed T47D cells, sialylated O-glycans unmasked by neuraminidase) | VVA peak shift (accumulation of Tn antigens) (C1GALT1 [4]; T47D parental cells, itraconazole 10 ug/ml, regardless of sialylated O-glycans) |
| --- | --- | --- | --- | --- | --- | --- | --- | --- | --- | --- | --- | --- | --- | --- |
| Cc1[nH]c(/C=C2\C(=O)Nc3ccc(S(=O)(=O)Cc4c(Cl)cccc4Cl)cc32)c(C)c1C(=O)N1CCC[C@@H]1CN1CCCC1 [PHA665752] | significantly inhibited | significantly inhibited |  |  |  |  |  |  |  |  |  |  |  |  |
| CCC(C)n1ncn(-c2ccc(N3CCN(c4ccc(OCC5COC(Cn6cncn6)(c6ccc(Cl)cc6Cl)O5)cc4)CC3)cc2)c1=O (centres unmarked) [itraconazole] |  |  | major right-shift of the VVA peaks | significantly suppressed | significantly suppressed | significantly suppressed | major peak shifts to the right | right shift of the VVA peak | major right-shift of the VVA peaks | major peak shifts to the right | right shift of the VVA peak | major right-shift of the VVA peaks | major peak shifts to the right | right shift of the VVA peak |
